Results: US20160207950A1, “ORGA[…]-2-CYANO-1-HYDROXYPROPAN-2-YL FOR USE AS ANTHELMINTICS” (UNIVERSITÄT ZÜRICH, priority 2013, published 2016)
pIC50: −log10 of the molar value. Read-outs that look alike come from different tables or passages of the source.

Legend:
Haemonchus Contortus = assay: Activity in vitro against Haemonchus contortus (egg hatch / larval development)
Method: (§1) Activity in Vitro against Haemonchus contortus & Trichostrongylus colubriformis (Gastrointestinal nematodes).
(§2) Freshly harvested and cleaned nematode eggs are used to seed a suitably formatted microplate containing the test substances to be evaluated for antiparasitic activity. Each compound is tested by serial dilution in order to determine its MED. The test compounds are diluted in nutritive medium allowing the full development of eggs through to 3rd instar larvae. The plates are incubated for 6 days at 28° C. and 60% relative humidity (RH). Egg-hatching and ensuing larval development are recorded to identify a possible nematocidal activity. Efficacy is expressed in percent reduced egg hatch, reduced development of L3, or paralysis & death of larvae of all stages.

[1] = test system: Trychostrongylus colubriformis; assay: Activity in vitro against Trichostrongylus colubriformis (egg hatch / larval development)
Method: as §1, §2

[2] = test system: human cervical cancer HeLa; assay: fluorometric cell viability assay (Resazurin), toxicity towards HeLa; format: cell-based; conditions: 2 days treatment
Method: Cell Culture: Human cervical carcinoma cells (HeLa) were cultured in DMEM (Gibco) supplemented with 5% fetal calf serum (FCS, Gibco), 100 U/ml penicillin, 100 μg ml streptomycin at 37° C. and 5% CO2. The normal human fetal lung fibroblast MRC-5 cell line was maintained in F-10 medium (Gibco) supplemented with 10% FCS (Gibco), 200 mmol/l L-Glutamine, 100 U/ml penicillin, and 100 μg/ml streptomycin at 37° C. and 5% CO2. Toestablish the anticancer potential of the compounds they were tested in one cell line, namely HeLa by a fluorometric cell viability assay using Resazurin (Promocell GmbH). Compounds showing cytotoxicity were then tested on normal MRC-5 cells. 1 day before treatment, cells were plated in triplicates in 96-well plates at a density of 4×10^3 cells/well in 100 μl for HeLa and 7×10^3 cells/well for MRC-5 cells. Cells were treated with increasing concentrations of the compounds for 2 days. After 2 days, medium and drug were removed and […] fresh medium containing Resazurin (0.2 mg/ml final concentration) were added. After 4 h of incubation at 37° C., the highly red fluorescent dye resorufin's fluorescence was quantified at 590 nm emission with 540 nm excitation wavelength in the SpectraMax M5 microplate Reader. […]

C. elegans = C. elegans movement inhibition assay
Method: C. elegans movement inhibition assay: Asynchronous N2 C. elegans worms (Bristol) were maintained on nematode growth medium (NGM) agar, seeded with a lawn on OP50 E coli as a food-source, according to standard protocol (Maintenance of C. elegans; Stiernagle, T., Ed.; WormBook, 2006.). Worms were harvested from NGM plates by washing with M9 buffer (42 mmol/l Na2HPO4, 22 mmol/l KH2PO4, 86 mmol/l NaCl and 1 mmol/l MgSO4), aspiration and collection in a 10 mL tube (Falcon). The average number of worms in 5 μL of this suspension was calculated by transferring 4×5 μL aliquots to a glass slide (Menzel Glaser), and worms were enumerated under a compound microscope (Olympus CH30). To adjust the suspension to contain 1 worm per μL, M9 buffer was either added or removed after pelleting worms at 600× g for 30 sec.
Dilution of test compounds, Zolvix (monepantel) and DMSO for working stock solutions and 96 well plate set-up for liquid screen: A volume of 70 μL of M9 buffer was added to each well in a 96-well plate, using a multichannel pipettor. A volume of 20 μL of worm suspension was added to each well using a single-channel pipettor, with a trimmed pipette tip (increased aperture to minimize damage to worms). […]
Quantitative worm mobility scoring: Immobile worms were counted as a percentage of total worms in each well using an Olympus SZ30 dissecting microscope. […]

Substance | Activity against Haemonchus Contortus at 10 [mg/mL] (Haemonchus Contortus; listed as compound 1) | Activity against Haemonchus Contortus at 10 [mg/mL] (Haemonchus Contortus; listed as drawing 26) | Activity against Trychostrongylus colubriformis at 10 [mg/mL] ([1]; listed as compound 1) | Activity against Trychostrongylus colubriformis at 10 [mg/mL] ([1]; listed as drawing 26) | Number of L3 H. contortus/100 μM (H. contortus) | pIC50 [2] | mobility of the C. elegans worms (in words) (C. elegans; 50 μM) | Mobility in C. elegans at 50 μM (C. elegans; 24 h incubation) | Activity against Haemonchus Contortus at 10 [mg/mL] (Haemonchus Contortus) | Activity against Trychostrongylus colubriformis at 10 [mg/mL] [1] | efficacy against dirofilaria immitis (in words) (Dirofilaria immitis) | Activity against Dirofilaria immitis at 10 [mg/mL] (Dirofilaria immitis; 10 mg/mL)
N-(2-cyano-1-(5-cyano-2-(trifluoromethyl)phenoxy)propan-2-yl)ferroceneamide [Compound 1] | up to 69% | 69% | up to 69% | 68% | >100 | 4.03 | significantly reduced | 2% |  |  |  | 
N-(2-cyano-1-(5-cyano-2-(trifluoromethyl)phenoxy)propan-2-yl)ruthenoceneamide [Compound 1a] |  |  |  |  |  | < 4.00 |  |  | 0% | 0% | moderate efficacy | 30%
